Reference: BindingDB's records for patent US20240336562 (Hangzhou Innogate Pharma, 2024)

Molecular target: NACHT, LRR and PYD domains-containing protein 3 (Homo sapiens, UniProt Q96P20)
Assay: Inhibitory Activity of NLRP3
Method: ELISA plate, and incubated at 4° C. overnight. Discard the liquid in the ELISA plate and wash it 4 times with eluent. Add 300 μL/well reagent diluent and incubate the ELISA plate at room temperature for 1.5 hours. Wash the plate with eluent for four times. Then 100 μL/well samples were added to ELISA plate coated with IL1β and incubated at room temperature for 2 h. Wash the plate with eluent for four times. Each well was added with 100 μL detection antibody and incubated at 37° C. for 2 h. Wash the plate with eluent for four times. Add 100 μL of HRP labeled secondary antibody to each well. Incubate at 37° C. for 1 hour. Wash the plate with eluent for four times. Add 100 μL of A+B substrate per well. Incubate at 37° C. for 30 minutes. Add 100 μL STOP solution per well. Gently shake the plate for a few seconds. Read the absorption value at 450 nm on the EnVision multifunction reader and calculate the Inhibitory rate according to the following formula: Inhibition %=(Ave_H-Sample)/(Ave_H-Ave_L). Among them, Ave_H represents the average value of DMSO well, Sample represents the average value of compound well, and Ave_L represents the average value of 10 μM positive control well. The log value of concentration was taken as the X-axis and the percentage inhibitory rate as the Y-axis. […]

Sequence of NACHT, LRR and PYD domains-containing protein 3 (Q96P20 whole entry, the tested form may be a part): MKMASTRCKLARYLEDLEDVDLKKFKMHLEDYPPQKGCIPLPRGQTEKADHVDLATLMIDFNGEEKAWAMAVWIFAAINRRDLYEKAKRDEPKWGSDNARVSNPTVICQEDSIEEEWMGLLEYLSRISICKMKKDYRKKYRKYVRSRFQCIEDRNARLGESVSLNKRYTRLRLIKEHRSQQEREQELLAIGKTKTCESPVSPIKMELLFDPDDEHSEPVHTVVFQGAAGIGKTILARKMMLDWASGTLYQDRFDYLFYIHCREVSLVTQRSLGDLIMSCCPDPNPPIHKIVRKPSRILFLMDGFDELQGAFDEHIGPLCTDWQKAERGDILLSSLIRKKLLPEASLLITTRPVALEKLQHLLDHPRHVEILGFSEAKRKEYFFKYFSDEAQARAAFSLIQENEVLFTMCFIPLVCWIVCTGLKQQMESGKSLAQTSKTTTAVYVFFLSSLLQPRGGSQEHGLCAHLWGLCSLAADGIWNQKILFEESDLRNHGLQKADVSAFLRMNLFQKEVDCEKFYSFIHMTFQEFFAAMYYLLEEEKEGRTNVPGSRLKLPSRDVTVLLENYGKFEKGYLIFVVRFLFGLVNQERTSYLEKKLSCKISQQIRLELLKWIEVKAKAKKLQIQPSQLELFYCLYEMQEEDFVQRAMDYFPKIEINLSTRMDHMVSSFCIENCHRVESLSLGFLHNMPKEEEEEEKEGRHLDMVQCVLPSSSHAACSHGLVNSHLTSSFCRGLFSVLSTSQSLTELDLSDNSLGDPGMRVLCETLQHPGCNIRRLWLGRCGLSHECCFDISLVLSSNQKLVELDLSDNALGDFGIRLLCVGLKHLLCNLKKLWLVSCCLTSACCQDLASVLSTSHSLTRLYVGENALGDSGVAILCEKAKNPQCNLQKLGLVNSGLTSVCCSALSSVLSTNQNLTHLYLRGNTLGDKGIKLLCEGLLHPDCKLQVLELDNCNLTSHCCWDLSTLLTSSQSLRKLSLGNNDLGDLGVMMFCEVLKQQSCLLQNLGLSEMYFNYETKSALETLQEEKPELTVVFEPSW

For COc1cc(-c2c(C)cc3c(c2NC(=O)NS(=O)(=O)c2ccn(C4CC(=C(F)F)C4)n2)CCC3)ccn1 (stereo unspecified) [US20240336562, Compound 22], which IC50 is on record?
Its IC50 is < 0.025 µM.
